{"source": "patent US5258371A", "about": "“Method to reduce connective tissue destruction” (Kuraray Co., Ltd., priority 1992, dated 1993)", "key": {"collagenase [1]": {"target": "T1, collagenase (Oryctolagus cuniculus, UniProt P13943)", "T1 construct": "endogenous in cells; host or cells: primary knee articular chondrocytes of Japanese white rabbit, stimulated with human recombinant interleukin-1 ('Interleukin-1a' in the source); culture supernatant", "T1 sequence (P13943 99-468)": "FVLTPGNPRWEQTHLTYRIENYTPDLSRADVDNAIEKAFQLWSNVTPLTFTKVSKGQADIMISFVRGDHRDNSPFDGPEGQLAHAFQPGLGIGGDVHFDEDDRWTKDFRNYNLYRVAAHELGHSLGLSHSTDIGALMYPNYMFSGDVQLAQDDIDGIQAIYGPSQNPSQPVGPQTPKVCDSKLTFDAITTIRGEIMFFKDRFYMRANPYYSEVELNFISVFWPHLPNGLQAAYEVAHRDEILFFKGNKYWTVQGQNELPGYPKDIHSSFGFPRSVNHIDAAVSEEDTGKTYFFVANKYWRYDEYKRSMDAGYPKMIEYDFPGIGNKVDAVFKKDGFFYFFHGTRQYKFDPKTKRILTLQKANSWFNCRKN", "assay": "Collagenase inhibition test (in vitro), decomposition of FITC-labelled collagen", "assay_type": "biochemical, Japanese white rabbit", "details": "for IC50: collagenase from IL-1-stimulated rabbit chondrocyte culture supernatant, trypsin-activated, 35° C., 5% DMSO, read-out: Concentration of Drug Showing 50% Inhibition, IC50; for anti-collagenase activity (in words): refers to Test Example; for collagenase inhibition activity as a multiple of that of DMAT: relative to DMAT (control), from Table 1", "procedure": "The tetracycline derivatives used in the present invention were tested for collagenase inhibition (in vitro), and for suppression of destruction of articular cartilage using rabbit osteoarthritis models (in vivo).\nThe knee articular cartilage of a Japanese white rabbit (4 weeks old) was aseptically taken out. The cartilage cells (chondrocytes) were separated according to the method of S. Collier et al [Ann. Rheum. […] In 30 ml of Ham's F12 culture medium (containing 10% fetal bovine serum) 4×10^6 cartilage cells were suspended and the medium was incubated at 37° C. in a 150 cm^2 incubation flask (made by Iwaki Glass Co., Japan) and under an air atmosphere containing 5% carbon dioxide. The medium was replaced every 3 to 4 days. When the cells propagated to the state of confluence (7 to 9 days after the start of incubation), the medium was replaced by Ham's F12 serum-free culture medium (30 units/ml of human recombinant Interleukin-1a made by Genzyme Co., USA) and 0.4% lactalbumin hydrolysate (made by Sigma Co., USA) and incubation was conducted for 4 days. The culture supernatant was taken and used as the collagenase solution to be tested.\nThe collagenase activity was expressed based on the decomposition of 1 μg of collagen at 35° C. in 1 minute being equal to 1 unit.\nA solution of a drug to be tested was dissolved in dimethyl sulfoxide (DMSO), then was added to the collagenase assay solution. The final concentration of DMSO is 5%. The inhibition ratio of the drug was calculated based on the collagen decomposition activity without its addition being 100%."}, "[2]": {"test_system": "articular cartilage in rabbit osteoarthritis models", "assay": "Test for suppression of destruction of articular cartilage using rabbit osteoarthritis models (partial lateral meniscectomy)", "assay_type": "in vivo, New Zealand white rabbit", "procedure": "The tetracycline derivatives used in the present invention were tested for collagenase inhibition (in vitro), and for suppression of destruction of articular cartilage using rabbit osteoarthritis models (in vivo). The tetracycline derivatives tested were the mixture of DODMAT-2 and DODMAT-3 obtained in Synthesis Example 1 (hereinafter this mixture is referred to as \"DODMAT mixture\" and DOTC (mixture of isomers) obtained in Synthesis Example 2. DMAT was used as control.\nThe rabbit osteoarthritis models were made by the partial lateral meniscectomy procedure according to the method of C. Colombo et al [Arthritis Rheum., 26, 875 (1983)]. Adult male New Zealand white rabbits weighing approximately 3 kg each were used. The animals were anesthetized by intramuscular injection of 40 mg/kg Ketamine and 1.6 mg/kg Xylazine before surgery. The surgery was conducted as follows; the right knee was opened laterally, the fibular collateral ligament was exposed and 3-4 mm were removed. Subsequently, 3-4 mm of the sesamoid ligament were removed, followed by removal of 4-5 mm of the anterior lateral area of the exposed meniscus. The capsule and skin were then sutured. Following surgery, each animal daily received intramuscular injection of 2 mg/kg/day Dibekacin sulfate for a week to be protected from infection. The animals were sustained on standard rabbit pellets and tap water ad libitum during experiment.\nThe test drug (DODMAT mixture) or vehicle began 1 week post-surgery and continued every 7 days per week for 5 weeks. DODMAT, suspended in a vehicle aqueous solution containing 1% methyl cellulose, 0.8% sodium chloride, and 0.1% polysorbate 80, was administered orally by gavage. […] The histologic slides were coded and evaluated blind for 11 parameters, which are set forth in Table 2, using a scoring system of +1 to +4 for each type of abnormality as described by C. […] The data were analyzed by the one-sided Wilcoxon rank sum method."}, "collagenase [3]": {"test_system": "collagenase", "details": "J. Dent. Res., 66, 1310 (1987) and others; cited from earlier work"}, "bone resorption": {"test_system": "bone resorption", "details": "J. Dent. Res., 66, 1310 (1987) and others; cited from earlier work"}, "[4]": {"details": "compared to tetracyclines; cited from earlier work"}, "rheumatoid arthritis": {"test_system": "rheumatoid arthritis", "details": "rheumatoid arthritis patients; J. Rheumatol., 17, 43 (1990); cited from earlier work"}, "collagenase [5]": {"test_system": "collagenase", "details": "periodontal diseases; J. Periodontal Res., 18, 516 (1983); cited from earlier work"}}, "data": [{"molecule": "4-dedimethylamino-12a-deoxytetracycline [DODMAT mixture]", "values": [{"measurement": "IC50", "setting": "collagenase [1]", "result": 2.5, "unit": "µM"}, {"measurement": "anti-collagenase activity (in words)", "setting": "collagenase [1]", "result": "excellent anti-collagenase activity"}, {"measurement": "collagenase inhibition activity as a multiple of that of DMAT", "setting": "collagenase [1]", "result": "at least 10 times"}, {"measurement": "Mean score of cartilage lesions ± S.E.", "setting": "[2]; 15 mg/kg/day orally by gavage, 5 weeks from 1 week post-surgery, 9 animals, p < 0.05 (one-sided Wilcoxon rank sum), vehicle 46.6 ± 7.3 (7 animals)", "result": "24.7 ± 3.3"}, {"measurement": "improvement resulting from treatment", "setting": "[2]; cartilage lesion score versus vehicle, 15 mg/kg/day oral", "result": "at least 47%"}, {"measurement": "suppression of destruction of articular cartilages (in words)", "setting": "[2]; rabbit osteoarthritis models", "result": "significant suppression of destruction of articular cartilages"}]}, {"molecule": "12a-deoxytetracycline [DOTC]", "values": [{"measurement": "IC50", "setting": "collagenase [1]", "result": 22, "unit": "µM"}, {"measurement": "anti-collagenase activity (in words)", "setting": "collagenase [1]", "result": "excellent anti-collagenase activity"}, {"measurement": "collagenase inhibition activity as a multiple of that of DMAT", "setting": "collagenase [1]", "result": "at least 10 times"}]}, {"molecule": "C[C@@]1(O)c2cccc(O)c2C(=O)C2=C(O)[C@]3(O)C(=O)C(C(N)=O)=C(O)CC3CC21", "note": "(stereo partly drawn) [DMAT, 4-dedimethylaminotetracycline]", "values": [{"measurement": "IC50", "setting": "collagenase [1]", "result": 300, "unit": "µM"}, {"measurement": "collagenase inhibition compared to tetracyclines (in words)", "setting": "collagenase [3]", "result": "compares favorably to tetracyclines with respect to collagenase inhibition"}, {"measurement": "suppression of bone resorption compared to tetracyclines (in words)", "setting": "bone resorption", "result": "compares favorably to tetracyclines with respect to collagenase inhibition, suppression of bone resorption"}, {"measurement": "antibacterial activity (in words)", "setting": "[4]", "result": "without the same antibacterial activity"}]}, {"molecule": "CN(C)c1ccc(O)c2c1C[C@H]1C[C@H]3[C@H](N(C)C)C(O)=C(C(N)=O)C(=O)[C@@]3(O)C(O)=C1C2=O", "note": "[minocycline]", "values": [{"measurement": "time after start of administration at which appreciable effects were observed", "setting": "rheumatoid arthritis", "result": 4, "unit": "months"}, {"measurement": "anti-collagenolytic activity (in words)", "setting": "collagenase [5]", "result": "anti-collagenolytic activity"}]}]}
